Laboratory results reported in patent US12178800B2, “Sulforaphane-melatonin-like compound” (priority 2018, dated 2024).

Tests used:
mouse tongues = assay: TUNEL staining of tongue sections (apoptosis); format: in vivo, ICR mice; conditions: 12 days post-irradiation, control 23.7%
Source text: The scoring of oral mucositis was based on a modification of the method of Sonis et al. To assess the severity of oral mucositis, mice were anesthetized with isoflurane every day. The oral mucositis score was: 0=normal; 1=partial hyperemia, erythema and swelling; 2=overall hyperemia, erythema and swelling; 3=epidermolysis, hyperemia and erythema; 4=extensive epidermolysis and bleeding; 5=bleeding and abscesses. Myeloperoxidase (MPO) activity is a marker for neutrophils in inflamed tissue. MPO activity was measured in mouse tongues using a modification of the method of Chen et al. After mice had been killed by cervical dislocation 12 days after irradiation, tongue samples (n=10 per group) were removed and stored at −70° C. until required for assay. […] MPO activity was measured using a Microplate Reader (NJ-2300; Biotec, Tokyo, Japan) at 450 nm. MPO activity was calculated by measuring the slope of absorbance calibrated using MPO standards (Wako Biochemicals) and expressed as MPO/g tongue. […] TBARS levels were measured using the Microplate Reader (Biotec) at 540 nm. TBARS levels were calculated by measuring the slope of absorbance calibrated using TBARS standards and expressed as TBARS/g tongue. […] The number of TUNEL-positive cells on the tongue tips were counted and expressed as a percentage. […] Data were analyzed using one-way analysis of variance (ANOVA) followed by the Steel-Dwass test. […]

biopsy wound = assay: Healing of biopsy wounds in irradiated skin; format: in vivo, Gottingen mini-pigs; conditions: biopsy wound 3 days after irradiation
ICR mice = assay: X-ray-induced oral mucositis in mice: survival and behaviour; format: in vivo
Protocol: In a second example for illustrating embodiments of the present invention, six-week-old ICR mice (30-40 g) obtained from Institute of Animal Breeding and Genetics, University of Gottingen, Germany were used. The animals were housed in a room maintained at 22±2° C. under a 12-h light-dark cycle with lights on at 7:00 a.m. Mice were fed a standard rodent diet and had free access to water. In addition, no antibiotic supplements were used. All animal experiments were performed in compliance to The German Animal Welfare Act. The mice (n=20 per group) were anesthetized (pentobarbital sodium, 50 mg/kg body weight, i.p.) and then irradiated. Mice had to be irradiated only at the tip of the tongue, so the rest of the body was shielded with a lead device (thickness, 0.5 mm). The tongue was fixed to the outer surface of the lead device using adhesive tape and irradiated with a single radiation dose of 20 Gy. Radiation was generated using a 150 kV potential (20 mA) X-ray source at a focal distance of 350 mm and beam-hardened by a 1.0-mm aluminum filtration system (MBR-1520R-3; Hitachi, Tokyo, Japan). The dose rate was 5.1 Gy/min. The 6OHM-6-HITC compound was dissolved in a small volume of 1 M NaOH solution. The pH was adjusted to 7 with 1 M HCL. […] The body weight was recorded and the tongues were observed daily after irradiation. […]

nuclear factor (NF)-κB = assay: NF-κB immunohistochemistry of irradiated skin; format: in vivo, Gottingen mini-pigs
Protocol: After incubation in normal horse serum for 60 min to prevent nonspecific binding, the skin sections were incubated with mouse anti-nuclear factor (NF)-κB (sc-109, 1:200; Santa Cruz Biotechnology, Santa Cruz, CA, USA) and mouse anti-COX-2 (18-7379, 1:200; Zymed, USA) in phosphate buffered saline-Tween (PBS-T overnight at 4° C. The sections were subsequently incubated with biotinylated horse anti-mouse IgG (VECTASTAIN Elite ABC Kit; Vector Laboratories, USA). The immunoreactivity was assessed using the avidin-biotin peroxidase complex (VECTASTAIN Elite ABC Kit; Vector Laboratories). The peroxidase reaction was developed using a diaminobenzidine substrate kit (DAB Substrate Kit SK-4100; Vector Laboratories). As a control, the primary antibodies were omitted from the immunohistochemical analysis of a few test sections in each experiment. The sections were then counterstained with hematoxylin before being mounted.

`COc1cc2c(CCCCN=C=S)c[nH]c2cc1O` [6OHM-6-HITC] was tested, and the “percentage of TUNEL-positive cells” value (mouse tongues; 30 mg/kg i.p.) was 9.9%, the “percentage of TUNEL-positive cells” value (mouse tongues; 300 mg/kg i.p.) was 8.6% and the “healing of the biopsy wound” value (biopsy wound) was “attenuated the radiation-induced delayed healing”. For the same molecule, the behavioral disorders (ICR mice; 300 mg/kg i.p.) was “not observed”, the “survival after X-ray irradiation” value (ICR mice; 30 and 300 mg/kg i.p. 30 min before 20 Gy irradiation of the tongue) was “significant difference in survival was not found” and the “NF-κB expression in irradiated skin vs. vehicle-treated irradiated skin” value (nuclear factor (NF)-κB; 7, 21 and 35 days after irradiation) was “lower”. For the same molecule, the “nuclear NF-κB expression” value (nuclear factor (NF)-κB; irradiated skin, treated) was “rapidly decreased”.
